Measured values as given in patent publication US12448358B2, “Inhibitors of protein arginine deiminase 1 and methods of preparation and use thereof” (University of Massachusetts, priority 2019, dated 2025).

Experiments:
[1] = target: T1, PAD1 (Homo sapiens, UniProt Q9ULC6); test: Target engagement assay: labelling of PAD1 in HEK293TPAD1 cells with 21 in the presence of inhibitor; type: cell-based; conditions: 5 μM of 21, 3 h, read-out: EC50 of inhibition of labelling of PAD1 by 21
T1 construct: made in house
T1 sequence (Q9ULC6 1-663): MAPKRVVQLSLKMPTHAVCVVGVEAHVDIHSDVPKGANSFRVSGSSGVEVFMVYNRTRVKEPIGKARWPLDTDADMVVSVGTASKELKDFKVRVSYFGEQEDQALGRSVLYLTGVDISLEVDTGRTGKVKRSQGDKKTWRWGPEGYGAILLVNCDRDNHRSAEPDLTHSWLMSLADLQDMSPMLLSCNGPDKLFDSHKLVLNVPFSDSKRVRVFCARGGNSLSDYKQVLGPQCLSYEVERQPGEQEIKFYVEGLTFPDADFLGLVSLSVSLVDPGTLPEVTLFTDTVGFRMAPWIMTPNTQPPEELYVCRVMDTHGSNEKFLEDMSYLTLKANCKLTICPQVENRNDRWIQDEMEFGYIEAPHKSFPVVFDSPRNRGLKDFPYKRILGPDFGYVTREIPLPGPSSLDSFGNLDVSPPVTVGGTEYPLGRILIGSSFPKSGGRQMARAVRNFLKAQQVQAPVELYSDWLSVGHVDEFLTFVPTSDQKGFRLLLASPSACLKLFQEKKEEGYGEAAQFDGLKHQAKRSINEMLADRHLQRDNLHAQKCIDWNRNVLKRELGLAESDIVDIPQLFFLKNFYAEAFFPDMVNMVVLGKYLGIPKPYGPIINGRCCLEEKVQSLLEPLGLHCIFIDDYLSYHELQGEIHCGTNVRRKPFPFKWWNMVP
Description: Target Engagement Assay—Labelling of PAD1 in HEK293TPAD1 cells with 21 in the presence of 1. This study followed a similar procedure to that described for the dose-dependent labelling of PAD1 in HEK293TPAD1 cells with 21. Briefly, HEK293TPAD1 cells were treated with 1 mM CaCl2, 5 μM ionomycin, 5 μM of 21, and increasing concentrations (0-50 μM) of 1 in serum-free DMEM for 3 h. Cells were scraped, harvested by centrifugation at 3,000 rpm for 5 min and resuspended in 1×PBS. Lysis was carried out by sonicating the cells with a probe sonicator and lysates were clicked with TAMRA-N3 in the presence of TCEP, TBTA and CuSO4 as described above. Protein bands were separated by SDS-PAGE and were visualized by recording in-gel fluorescence. […] All the experiments were performed at least in duplicate.

[2] = target: T1, PAD1; test: Limit of detection for in vitro labelling of recombinant PAD1 by probe; type: binding; conditions: 10 μM probe, conjugated with TAMRA-N3 using CuAAC
Description: Dose-dependent in vitro Labelling of Recombinant PADs with 21 and 22. A PAD (1.4 μM) was added to a prewarmed (10 min at 37° C.) reaction mixture (25 mM TRIS pH 7.4, 10 mM NaCl, and 5 mM CaCl2) containing various concentrations of 21 or 22 (or equal volume of DMSO for control). The mixture was incubated at 37° C. for 15 min. Then TAMRA-N3 (50 μM), TCEP (1 mM), TBTA (0.3 mM) and freshly prepared copper (II) sulphate (1 mM) were sequentially added to the reaction mixture and the tubes were gently tumbled at room temperature for 2 h. Then the reactions were quenched with 5×SDS-PAGE loading dye, heated at 95° C. for 15 min and loaded onto 4-15% gradient SDS-PAGE gel. Protein bands were visualized by recording in-gel fluorescence using a typhoon scanner (approximate excitation/emission maxima ˜546/579, respectively). All the experiments were performed at least in duplicate.
Limit of Detection for in vitro Labelling of Recombinant PADs with 21 and 22. Various concentrations of PAD were added to prewarmed (10 min at 37° C.) reaction mixtures (25 mM TRIS pH 7.4, 10 mM NaCl, 5 mM CaCl2) containing 10 μM of 21 or 22. […] Protein bands were visualized by recording in-gel fluorescence using a typhoon scanner (approximate excitation/emission maxima ˜546/579, respectively). […]

[3] = target: T1, PAD1; test: Limit of detection of PAD1 labelling in HEK293TPAD1 cells by probe; type: cell-based; conditions: 5 μM probe, 3 h; calculated from PAD1 content 0.06% of the total protein
Description: FIG. 16. (A) Time-dependent labelling of PAD1 in HEK293TPAD1 cells by 21. HEK293TPAD1 cells were treated with 21 (5 μM) in serum-free DMEM for various times. After the treatment, cells were harvested and flash-frozen in liquid nitrogen. Cell lysates were treated with TAMRA-N3, TCEP, TBTA and CuSO4 for 2 h at room temperature. Time-dependent labelling of PAD1 by 21 was recorded on a Typhoon scanner. (B) Limit of detection of PAD1 in HEK293TPAD1 cells by 21. For this study, cells were treated with 5 μM of 21 in serum-free DMEM for 3 h and decreasing amounts (indicated by total protein content) of lysates were clicked with TAMRA-N3 in the presence of TCEP, TBTA and freshly prepared CuSO4. […] F stands for fluorograph.
Dose-dependent Labelling of PAD1 in HEK293TPAD1 cells with 21. HEK293TPAD1 cells were plated in 6-well plates at a density of ˜1×10^6 cells/well and were allowed to grow in DMEM (supplemented with 10% heat-inactivated fetal bovine serum, 100 units/mL penicillin, 100 μg/mL streptomycin and 0.15 mg/mL hygromycin B) for 12 h. […] Soluble proteins in the lysate were quantified by DC-assay (Bio-Rad). […] Protein bands were visualized by recording in-gel fluorescence using a typhoon scanner (approximate excitation/emission maxima ˜546/579, respectively). […]

| SMILES | EC50 [1] | limit of detection (LOD) of recombinant PAD1 [2] | LOD of PAD1 in HEK293TPAD1 cells [3] |
| --- | --- | --- | --- |
| N=C(CF)NCCC[C@H](NC(=O)c1cc(I)cc(I)c1O)c1nc2ccccc2[nH]1 [Compound 1] | 12.7 µM | – | – |
| C#Cc1c(I)cc(C(=O)N[C@@H](CCCNC(=N)CF)c2nc3ccccc3[nH]2)c(O)c1I [Compound 21] | – | 4.3 pmol | 72 pmol |
